Reference: publication PMC5119973 (Cancer Medicine, 2016)
Where “and” joins values, the source holds several entries; their conditions need not be identical. Identical values can stand only once.

What was measured:
[1] = molecular target: T1, TNIK (Homo sapiens, UniProt Q9UKE5); assay: KINOMEscan active-site competitive binding assay; settings: slash = two separate measurements
T1 construct: purchased DiscoveRx

[2] = molecular target: T2, ABL1-np (Homo sapiens, UniProt P00519); assay: KINOMEscan active-site competitive binding assay; settings: ABL1-np (not phosphorylated); slash = two separate measurements
T2 construct: purchased DiscoveRx (KINOMEscan service)

[3] = tested on: MDA‐MB‐231; assay: MDA‐MB‐231 breast cancer xenograft in NMRI nu/nu mice; format: in vivo, mouse; settings: for Tumor growth inhibition (%): MDA-MB-231, end of study day 40; for Tumor growth versus vehicle control: MDA‐MB‐231 model, P < 0.05 for all groups
Description: Mouse experiments were approved by the relevant regulatory agency of the federal state of Berlin (Landesamt für Gesundheit und Soziales Berlin, approval number G0221/03). Mice were maintained in individually ventilated cages in groups of four mice per cage. They received autoclaved food and bedding (Ssniff, Soest, Germany) and acidified (pH 4.0) tap water ad libitum. The animal facility was equipped with an automatic 12 h light/dark regulation, temperature regulation at 22 ± 2°C, and relative humidity of 50 ± 10%. Female NMRI nu/nu mice (purchased from Charles River, Sulzfeld, Germany) were inoculated with 1 × 10^7 MDA‐MB‐231 or HT‐29 cells, which were allowed to grow subcutaneously to a palpable size of approximately 60–100 mm^3. […] All administrations were performed in the morning, without anesthesia. Tumor volume was determined twice per week using caliper measurements, and the volume was calculated using the formula (D × d^2)/2, with d defined as the minor axis and D as the major axis of the measurement. Tumor growth inhibition was calculated as relative tumor volume in relation to the first treatment day.
Changes in tumor volume were statistically evaluated by two‐way repeated‐measures analysis of variance, followed by Bonferroni correction, using GraphPad Prism 5 (San Diego, CA), and P < 0.05 was regarded as significant. Additionally, body weight of all mice was determined twice weekly, and the health status of the animals, including behavioral changes, was recorded daily.

[4] = molecular target: T3, KIT^L576P (Homo sapiens, UniProt P10721, L576P); assay: KINOMEscan active-site competitive binding assay
T3 construct: purchased DiscoveRx

[5] = molecular target: BRAF^V600E (Homo sapiens, UniProt P15056, V600E); assay: Cellular kinase phosphorylation assay, RAT‐1/BRAF^V600E; format: cell-based; parameters: host or cells: RAT-1 rat fibroblasts; settings: RAT‐1/BRAF^V600E cells; without serum; read-out: Mean ± SD IC50
[6] = molecular target: T4, TIE‐2 (Homo sapiens, UniProt Q02763); assay: Cellular kinase phosphorylation assay, CHO/TIE2; format: cell-based; settings: CHO/TIE2 cells; without serum; brackets = number of experiments; read-out: Mean ± SD IC50
[7] = tested on: HuLECs; assay: VEGF‐C‐induced migration of HuLECs (scratch assay); format: cell-based, human; settings: 100 nmol/L, 40 h
Description: A sterile pipette tip was then used to scratch the cell layers, and images were taken after continued incubation for 40 h.

[8] = molecular target: T4, TIE‐2; assay: KINOMEscan active-site competitive binding assay; parameters: purchased DiscoveRx (KINOMEscan service); settings: data not shown
[9] = molecular target: T5, KIT^D816H (Homo sapiens, UniProt P10721, D816H); assay: KINOMEscan active-site competitive binding assay
T5 construct: purchased DiscoveRx

[10] = molecular target: T6, FLT3^R834Q (Homo sapiens, UniProt P36888, R834Q); assay: KINOMEscan active-site competitive binding assay
T6 construct: purchased DiscoveRx

[11] = molecular target: T7, RET^V804L (Homo sapiens, UniProt P07949, V804L); assay: KINOMEscan active-site competitive binding assay
T7 construct: purchased DiscoveRx (KINOMEscan service)

[12] = molecular target: KIT (Homo sapiens, UniProt P10721); assay: Cellular kinase phosphorylation assay, M07e/KIT; format: cell-based; parameters: human acute megakaryoblastic leukemia cell line (M07e; wt KIT assay); host or cells: M07e; settings: M07e/KIT cells; without serum; read-out: Mean ± SD IC50
[13] = molecular target: T8, RET^V804M (Homo sapiens, UniProt P07949, V804M); assay: KINOMEscan active-site competitive binding assay
T8 construct: purchased DiscoveRx (KINOMEscan service)

[14] = molecular target: T9, FLT1 (Homo sapiens, UniProt P17948); assay: KINOMEscan active-site competitive binding assay; settings: slash = two separate measurements
T9 construct: purchased DiscoveRx (KINOMEscan service)

[15] = molecular target: T10, FGFR2 (Homo sapiens, UniProt P21802); assay: FGFR phosphorylation assay in SNU‐16 cells (western blot); format: cell-based; settings: SNU‐16/FGFR2 cells, 0.1% bovine serum albumin, read-out: Mean ± SD IC50
T10 construct: FGFR2, but not FGFR1, is overexpressed in the SNU‐16 cell line; endogenous in cells
Description: (§1) VEGFR2 assays were performed in murine fibroblasts (NIH‐3T3) in the presence of 0.1 mg/mL human serum albumin. […] Substrate phosphorylation was determined from total cell lysates by enzyme‐linked immunosorbent assay. In addition, an FGFR phosphorylation assay was performed using a human gastric carcinoma cell line (SNU‐16), with pFGFR assessed by western blot. The PDGFRA phosphorylation assay was performed by DiscoverRx using the DiscoverRx PathHunter cell line, modified to express PDGFRA. […] The assay signal was generated using a detection reagent cocktail and measured by chemoluminescence 13. Both the PDGFRA and FGFR assays were performed in the presence of 0.1 mg/mL BSA.

[16] = molecular target: T11, PDGFRB (Homo sapiens, UniProt P09619); assay: KINOMEscan active-site competitive binding assay; settings: slash = two separate measurements
T11 construct: purchased DiscoveRx

[17] = molecular target: T12, KIT^V559D,V654A (Homo sapiens, UniProt P10721, V559D/V654A); assay: KINOMEscan active-site competitive binding assay
T12 construct: purchased DiscoveRx (KINOMEscan service)

[18] = molecular target: T13, BRAF (Homo sapiens, UniProt P15056); assay: KINOMEscan active-site competitive binding assay; settings: slash = two separate measurements
T13 construct: purchased DiscoveRx (KINOMEscan service)

[19] = molecular target: T14, PDGFRα (Homo sapiens, UniProt P16234); assay: PDGFRA phosphorylation assay, PathHunter cell line U2OS/PDGFRA; format: cell-based; settings: U2OS/PDGFRA cells; 0.1% bovine serum albumin; read-out: Mean ± SD IC50
T14 construct: host or cells: PathHunter cell line (U2OS/PDGFRA)
Description: as §1

T2 sequence (P00519 whole entry): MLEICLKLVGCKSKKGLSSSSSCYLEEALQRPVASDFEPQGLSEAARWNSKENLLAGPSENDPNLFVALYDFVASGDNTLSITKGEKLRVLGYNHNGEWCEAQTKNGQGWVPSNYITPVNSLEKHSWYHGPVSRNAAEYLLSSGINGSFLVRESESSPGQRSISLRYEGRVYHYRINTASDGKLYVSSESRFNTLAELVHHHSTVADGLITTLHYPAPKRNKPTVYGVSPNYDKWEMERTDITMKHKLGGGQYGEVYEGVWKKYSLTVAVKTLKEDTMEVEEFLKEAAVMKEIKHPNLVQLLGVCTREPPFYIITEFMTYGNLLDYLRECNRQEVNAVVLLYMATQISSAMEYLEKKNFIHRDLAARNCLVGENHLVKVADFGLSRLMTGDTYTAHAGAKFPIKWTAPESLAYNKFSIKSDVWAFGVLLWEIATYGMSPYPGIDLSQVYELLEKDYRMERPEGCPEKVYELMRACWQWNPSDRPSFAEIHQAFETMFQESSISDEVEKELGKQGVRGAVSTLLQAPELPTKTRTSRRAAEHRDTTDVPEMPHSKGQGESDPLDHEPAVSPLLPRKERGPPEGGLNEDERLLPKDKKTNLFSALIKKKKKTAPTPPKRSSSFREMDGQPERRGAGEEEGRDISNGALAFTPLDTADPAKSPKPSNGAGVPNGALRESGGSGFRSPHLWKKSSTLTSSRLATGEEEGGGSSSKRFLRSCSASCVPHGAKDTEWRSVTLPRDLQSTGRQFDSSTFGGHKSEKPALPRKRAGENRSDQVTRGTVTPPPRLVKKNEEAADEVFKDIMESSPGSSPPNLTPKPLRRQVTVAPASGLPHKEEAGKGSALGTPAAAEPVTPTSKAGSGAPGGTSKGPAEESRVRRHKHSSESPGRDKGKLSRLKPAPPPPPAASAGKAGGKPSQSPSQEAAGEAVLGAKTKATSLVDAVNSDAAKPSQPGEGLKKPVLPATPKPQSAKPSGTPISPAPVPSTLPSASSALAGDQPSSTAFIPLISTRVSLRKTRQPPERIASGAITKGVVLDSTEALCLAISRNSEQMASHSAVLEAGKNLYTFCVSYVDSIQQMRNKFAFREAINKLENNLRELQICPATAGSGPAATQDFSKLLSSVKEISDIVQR
T4 sequence (Q02763 23-1124): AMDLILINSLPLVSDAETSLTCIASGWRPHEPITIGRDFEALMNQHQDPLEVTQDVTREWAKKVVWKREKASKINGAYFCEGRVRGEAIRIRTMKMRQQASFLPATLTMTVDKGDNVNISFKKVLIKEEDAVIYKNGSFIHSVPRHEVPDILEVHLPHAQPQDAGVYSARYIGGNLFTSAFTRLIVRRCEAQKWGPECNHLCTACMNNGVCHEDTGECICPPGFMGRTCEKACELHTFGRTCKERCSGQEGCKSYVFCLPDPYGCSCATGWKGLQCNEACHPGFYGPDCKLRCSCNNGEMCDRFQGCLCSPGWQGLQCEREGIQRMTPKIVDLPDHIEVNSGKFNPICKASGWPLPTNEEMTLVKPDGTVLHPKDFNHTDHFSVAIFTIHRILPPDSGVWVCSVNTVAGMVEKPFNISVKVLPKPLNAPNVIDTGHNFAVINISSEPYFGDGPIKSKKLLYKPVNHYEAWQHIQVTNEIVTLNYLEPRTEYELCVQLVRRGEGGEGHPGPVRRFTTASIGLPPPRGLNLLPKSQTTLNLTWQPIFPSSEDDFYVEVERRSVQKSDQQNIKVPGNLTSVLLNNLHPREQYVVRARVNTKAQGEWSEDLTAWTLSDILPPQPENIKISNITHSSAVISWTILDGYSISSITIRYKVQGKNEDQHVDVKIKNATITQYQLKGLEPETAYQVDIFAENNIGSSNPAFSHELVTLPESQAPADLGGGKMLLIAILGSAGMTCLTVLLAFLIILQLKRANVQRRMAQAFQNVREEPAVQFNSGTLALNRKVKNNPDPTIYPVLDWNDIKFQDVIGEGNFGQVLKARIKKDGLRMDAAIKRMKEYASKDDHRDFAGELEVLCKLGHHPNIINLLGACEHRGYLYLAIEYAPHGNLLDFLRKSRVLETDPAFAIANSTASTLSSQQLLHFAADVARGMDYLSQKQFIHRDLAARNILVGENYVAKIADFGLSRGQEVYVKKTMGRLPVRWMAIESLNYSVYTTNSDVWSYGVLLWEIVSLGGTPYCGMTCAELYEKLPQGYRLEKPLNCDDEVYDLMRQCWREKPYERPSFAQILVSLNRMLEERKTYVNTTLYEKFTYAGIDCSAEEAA
T1 sequence (Q9UKE5 whole entry): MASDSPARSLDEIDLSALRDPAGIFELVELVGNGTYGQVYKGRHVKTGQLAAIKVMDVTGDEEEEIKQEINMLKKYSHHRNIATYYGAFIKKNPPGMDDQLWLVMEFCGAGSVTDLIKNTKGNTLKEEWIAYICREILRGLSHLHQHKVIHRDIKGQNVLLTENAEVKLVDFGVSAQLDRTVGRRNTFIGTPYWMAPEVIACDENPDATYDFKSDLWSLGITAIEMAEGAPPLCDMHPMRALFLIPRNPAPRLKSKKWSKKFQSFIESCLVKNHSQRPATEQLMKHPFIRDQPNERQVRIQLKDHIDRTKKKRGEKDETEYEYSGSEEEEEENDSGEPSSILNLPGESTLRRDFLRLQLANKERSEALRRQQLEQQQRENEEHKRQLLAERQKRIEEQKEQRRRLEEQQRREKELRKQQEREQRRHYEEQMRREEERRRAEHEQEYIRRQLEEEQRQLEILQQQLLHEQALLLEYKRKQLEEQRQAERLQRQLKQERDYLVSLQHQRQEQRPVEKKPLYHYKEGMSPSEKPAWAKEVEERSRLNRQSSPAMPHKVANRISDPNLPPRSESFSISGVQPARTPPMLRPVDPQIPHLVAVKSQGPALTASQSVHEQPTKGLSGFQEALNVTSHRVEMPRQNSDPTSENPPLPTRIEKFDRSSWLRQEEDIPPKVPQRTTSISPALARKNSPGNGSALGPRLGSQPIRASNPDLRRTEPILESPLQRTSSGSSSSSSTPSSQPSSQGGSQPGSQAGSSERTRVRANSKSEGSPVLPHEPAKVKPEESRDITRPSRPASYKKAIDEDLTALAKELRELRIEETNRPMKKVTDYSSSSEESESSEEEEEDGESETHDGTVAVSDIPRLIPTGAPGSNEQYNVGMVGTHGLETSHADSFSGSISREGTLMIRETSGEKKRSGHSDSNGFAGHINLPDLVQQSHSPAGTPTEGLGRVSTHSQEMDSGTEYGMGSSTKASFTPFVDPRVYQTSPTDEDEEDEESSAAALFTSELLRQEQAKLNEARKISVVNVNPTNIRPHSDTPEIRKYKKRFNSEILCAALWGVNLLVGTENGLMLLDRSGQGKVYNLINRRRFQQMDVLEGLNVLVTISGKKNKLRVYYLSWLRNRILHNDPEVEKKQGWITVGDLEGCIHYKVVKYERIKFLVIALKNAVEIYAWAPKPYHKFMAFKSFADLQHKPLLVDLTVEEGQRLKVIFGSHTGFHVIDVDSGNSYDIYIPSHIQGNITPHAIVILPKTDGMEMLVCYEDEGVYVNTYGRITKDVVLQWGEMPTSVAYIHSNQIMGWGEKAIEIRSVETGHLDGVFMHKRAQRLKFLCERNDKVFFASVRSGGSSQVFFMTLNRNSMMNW
T8 sequence (P07949 29-1114 V804M): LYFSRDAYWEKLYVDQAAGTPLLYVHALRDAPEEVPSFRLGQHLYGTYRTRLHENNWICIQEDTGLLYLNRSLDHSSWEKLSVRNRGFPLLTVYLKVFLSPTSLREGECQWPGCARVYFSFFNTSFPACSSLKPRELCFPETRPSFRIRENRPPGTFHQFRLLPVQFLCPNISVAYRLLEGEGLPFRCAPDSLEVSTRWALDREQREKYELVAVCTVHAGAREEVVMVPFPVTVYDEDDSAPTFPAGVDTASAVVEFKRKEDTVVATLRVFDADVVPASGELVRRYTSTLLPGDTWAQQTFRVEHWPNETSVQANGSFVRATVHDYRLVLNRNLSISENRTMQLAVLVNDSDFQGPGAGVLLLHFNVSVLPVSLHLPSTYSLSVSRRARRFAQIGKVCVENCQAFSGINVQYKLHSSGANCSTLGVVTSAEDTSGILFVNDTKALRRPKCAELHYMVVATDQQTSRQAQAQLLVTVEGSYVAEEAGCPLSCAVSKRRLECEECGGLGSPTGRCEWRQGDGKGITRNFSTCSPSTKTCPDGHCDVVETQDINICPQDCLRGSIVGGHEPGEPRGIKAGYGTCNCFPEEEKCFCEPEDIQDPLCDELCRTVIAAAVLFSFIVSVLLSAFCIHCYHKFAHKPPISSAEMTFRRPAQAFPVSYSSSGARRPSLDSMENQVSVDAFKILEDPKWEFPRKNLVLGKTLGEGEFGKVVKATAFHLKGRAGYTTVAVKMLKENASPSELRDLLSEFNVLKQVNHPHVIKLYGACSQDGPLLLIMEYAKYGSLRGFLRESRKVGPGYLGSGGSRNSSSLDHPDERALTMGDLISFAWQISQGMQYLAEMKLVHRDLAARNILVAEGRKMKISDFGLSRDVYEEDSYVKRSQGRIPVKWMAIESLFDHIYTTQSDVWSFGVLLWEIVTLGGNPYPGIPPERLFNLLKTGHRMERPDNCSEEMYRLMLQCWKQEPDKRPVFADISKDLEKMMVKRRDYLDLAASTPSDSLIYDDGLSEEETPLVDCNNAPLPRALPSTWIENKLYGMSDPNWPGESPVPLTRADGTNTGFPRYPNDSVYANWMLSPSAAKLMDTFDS
T7 sequence (P07949 29-1114 V804L): as the sequence (P07949 29-1114 V804M) above, with M776L counted along it

Structure (SMILES) | Kd [1] | Kd [2] | Tumor growth inhibition (%) ([3]; 3 mg/kg/day oral for 27 days) | Tumor growth inhibition (%) ([3]; 10 mg/kg/day oral for 27 days) | Tumor growth versus vehicle control [3] | Kd [4] | IC50 [5] | IC50 [6] | Inhibition of VEGF‐C‐induced migration [7] | Kd [8] | Kd [9] | Kd [10] | Kd [11] | IC50 [12] | Kd [13] | Kd [14] | IC50 [15] | Kd [16] | Kd [17] | Kd [18] | other results
CNC(=O)c1cc(Oc2ccc(NC(=O)Nc3ccc(Cl)c(C(F)(F)F)c3)c(F)c2)ccn1 [Regorafenib, reference compound] | 1.1 µM and 0.97 µM | 0.032 µM and 0.016 µM | 44% | 72% | significantly inhibited tumor growth |  |  |  |  |  |  |  |  |  |  |  |  |  |  |  | 
NC(=O)c1cc(Oc2ccc(NC(=O)Nc3ccc(Cl)c(C(F)(F)F)c3)c(F)c2)cc[n+]1[O-] [M‐5] | 0.12 µM | 0.02 µM | 60% | 59% | significantly inhibited tumor growth | 0.0091 µM | 0.027 µM | 0.18 µM | inhibited | 1.2 µM | 0.46 µM | 0.27 µM | 0.015 µM | 0.11 µM | 0.025 µM | 0.017 µM | ~1 µM | 0.011 µM | 0.042 µM | 0.017 µM | IC50 [19]: 0.061 µM
CNC(=O)c1cc(Oc2ccc(NC(=O)Nc3ccc(Cl)c(C(F)(F)F)c3)c(F)c2)cc[n+]1[O-] [M‐2] | 0.041 µM | 0.023 µM | 49% | 70% | significantly inhibited tumor growth | 0.017 µM | 0.021 µM | 0.066 ± 0.035 µM | inhibited | 0.79 µM | 0.49 µM | 0.24 µM | 0.013 µM | 0.013 µM | 0.02 µM | 0.023 µM | ~0.2 µM | 0.011 µM | 0.051 µM | 0.024 µM | IC50 [19]: 0.044 µM
